Earlier results as cited in PubChem BioAssay AID1259409 (Chemical Carcinogenesis Research Information System (CCRIS), 2018).

System: rodent chemically induced tumor inhibition, incidence and multiplicity
Assay: CCRIS tumor inhibitor studies

C=CCSCC=C
tumour outcome (control, treated, inhibition, significance) (Carcinogen: 4-(METHYLNITROSAMINO)-1-(3-PYRIDYL)-1-BUTANONE, 64091-91-4, Dose [Inhibitor]: 0, 200 MG/KG BW IN CORN OIL FOR 3 D PRIOR TO CARCINOGEN TREATMENT (STUDY DURATION: 16 WK), Route [Inhibitor]: ORAL, Species: MOUSE, Strain/Sex: STRAIN-A/FEMALE, Target Tissue: Type of Lesion: LUNG: TUMOR, Dose [Carcinogen]: 100 MG/KG BW ONCE, Promoter: NONE USED): 100%, 38%, 62%, not calculated
tumour outcome (control, treated, inhibition, significance) (Carcinogen: 4-(METHYLNITROSAMINO)-1-(3-PYRIDYL)-1-BUTANONE, 64091-91-4, Dose [Inhibitor]: 0, 200 MG/KG/BW IN CORN OIL 1/D FOR 3 DAY PRIOR TO CARCINOGEN DOSE (STUDY DURATION: 16 WK), Route [Inhibitor]: ORAL, Species: MOUSE, Strain/Sex: STRAIN-A/FEMALE, Target Tissue: Type of Lesion: LUNG: TUMOR, Dose [Carcinogen]: 2 MG ONCE ADMINISTERED 2 HR POST LAST AGENT DOSE, Promoter: NONE USED): 100%, 38%, 62%, p<0.05
tumour outcome (control, treated, inhibition, significance) (Carcinogen: 7,12-DIMETHYLBENZ[A]ANTHRACENE, 57-97-6, Dose [Inhibitor]: 0, 1.8 MMOL/KG BW IN CORN OIL 96, 48 AND 24 HR PRIOR TO CARCINOGEN TREATMENT (STUDY DURATION: 25 WK), Route [Inhibitor]: GAVAGE, Species: RAT, Strain/Sex: SPRAGUE-DAWLEY/FEMALE, Target Tissue: Type of Lesion: MAMMARY GLAND: ADENOCARCINOMA, Dose [Carcinogen]: 10 MG ONCE, Promoter: NONE USED): 92%, 56%, 39%, p<0.05
tumour outcome (control, treated, inhibition, significance) (Carcinogen: ARISTOLOCHIC ACID, 313-67-7, Dose [Inhibitor]: 0, 150 MG/KG BW ADMINISTERED 4 HR PRIOR TO EACH CARCINOGEN DOSE 2/WK FOR 12 WK (STUDY DURATION: 46 WK), Route [Inhibitor]: GAVAGE, Species: RAT, Strain/Sex: BD-6/MALE, Target Tissue: Type of Lesion: FORESTOMACH: CARCINOMA OR SARCOMA, Dose [Carcinogen]: 10 MG/KG BW 2/WK FOR 12 WK, Promoter: NONE USED): 9/20 (45%), 2/20 (10%), 78%, p<0.01
tumour outcome (control, treated, inhibition, significance) (Carcinogen: ARISTOLOCHIC ACID, 313-67-7, Dose [Inhibitor]: 0, 150 MG/KG BW ADMINISTERED 24 AND 4 HR PRIOR TO EACH CARCINOGEN DOSE FOR 12 WK (STUDY DURATION: 46 WK), Route [Inhibitor]: GAVAGE, Species: RAT, Strain/Sex: BD-6/MALE, Target Tissue: Type of Lesion: FORESTOMACH: CARCINOMA OR SARCOMA, Dose [Carcinogen]: 10 MG/KG BW 2/WK FOR 12 WK, Promoter: NONE USED): 11/25 (44%), 0/20 (0%), 100%, p<0.001
tumour outcome (control, treated, inhibition, significance) (Carcinogen: BENZO[A]PYRENE [50-32-8], Dose [Inhibitor]: 0, 200 MG/KG BW IN TRIOCTANOIN 1 D AND 2 HR PRIOR TO CARCINOGEN DOSE (STUDY DURATION: 21 WK), Route [Inhibitor]: GAVAGE, Species: MOUSE, Strain/Sex: CD-1/FEMALE, Target Tissue: Type of Lesion: SKIN: PAPILLOMA, Dose [Carcinogen]: 0.3 UMOL IN 0.2 ML ACETONE ONCE, Promoter: 12-O-TETRADECANOYLPHORBOL-13-ACETATE [16561-29-8]): 92%, 73%, 21%, not calculated
tumour outcome (control, treated, inhibition, significance) (Carcinogen: BENZO[A]PYRENE [50-32-8], Dose [Inhibitor]: 200 MG/KG IN 10 µL TRIOCTANOIN ONCE 1 D AND 2 HR PRIOR TO CARCINOGEN DOSE (STUDY DURATION: 21 WK), Route [Inhibitor]: GAVAGE, Species: MOUSE, Strain/Sex: CD-1/FEMALE, Target Tissue: Type of Lesion: SKIN: PAPILLOMA, Dose [Carcinogen]: 0.3 UMOL IN 0.2 ML ACETONE ONCE (STUDY DURATION: 21 WK), Promoter: 12-O-TETRADECANOYLPHORBOL-13-ACETATE [16561-29-8]): 92%, 74%, 20%, not calculated
tumour outcome (control, treated, inhibition, significance) (Carcinogen: DIETHYLNITROSAMINE, 55-18-5, Dose [Inhibitor]: 0, 150 MG/KG BW BY INTRAPERITONEAL INJECTION ON DAYS 13, 14 AND 15 OF AGE THEN 1 G/KG DIET FROM 21 TO 161 DAYS OF AGE (S, Route [Inhibitor]: INTRAPERITONEAL, ORAL, Species: MOUSE, Strain/Sex: C3H/MALE, Target Tissue: Type of Lesion: LIVER: ADENOMA, Dose [Carcinogen]: 4 MG/KG IN TRICAPRYLIN ONCE ON DAY 15 OF AGE, Promoter: NONE USED): 100%, 97%, 3%, not significant
tumour outcome (control, treated, inhibition, significance) (Carcinogen: DIETHYLNITROSAMINE, 55-18-5, N-METHYL-N-NITROSOUREA, 684-93-5, N,N'-DIMETHYLHYDRAZINE, 540-73-8, N-BUTYL-N-(4-HYDR, Carcinogen: DIETHYLNITROSAMINE, 55-18-5, N-METHYL-N-NITROSOUREA, 684-93-5, N,N'-DIMETHYLHYDRAZINE, 540-73-8, N-BUTYL-N-(4-HYDR, Dose [Inhibitor]: 0, 200 MG/KG BW IN CORN OIL 3/WK FOR 6 WK BEGINNING POST CARCINOGEN TREATMENT (STUDY DURATION: 28 WK), Route [Inhibitor]: GAVAGE, Species: RAT, Strain/Sex: F344/MALE, Target Tissue: Type of Lesion: KIDNEY: RENAL CELL ADENOMA, Dose [Carcinogen]: 100 MG/KG BW DEN ONCE, 20 MG/KG BW MNU ONCE ON D 2, 5, 8 AND 11, 40 MG/KG BW DMH ON D 14, 17, 20 AND 23, 0.05% BHBN I, Dose [Carcinogen]: 100 MG/KG BW DEN ONCE, 20 MG/KG BW MNU ONCE ON D 2, 5, 8 AND 11, 40 MG/KG BW DMH ON D 14, 17, 20 AND 23, 0.05% BHBN I, Promoter: NONE USED): 4/20 (20%), 4/19 (21%), -5%, not significant
tumour outcome (control, treated, inhibition, significance) (Carcinogen: DIETHYLNITROSAMINE, 55-18-5, N-METHYL-N-NITROSOUREA, 684-93-5, N,N'-DIMETHYLHYDRAZINE, 540-73-8, N-BUTYL-N-(4-HYDR, Carcinogen: DIETHYLNITROSAMINE, 55-18-5, N-METHYL-N-NITROSOUREA, 684-93-5, N,N'-DIMETHYLHYDRAZINE, 540-73-8, N-BUTYL-N-(4-HYDR, Dose [Inhibitor]: 0, 200 MG/KG BW IN CORN OIL 3/WK FOR 6 WK BEGINNING POST CARCINOGEN TREATMENT (STUDY DURATION: 28 WK), Route [Inhibitor]: GAVAGE, Species: RAT, Strain/Sex: F344/MALE, Target Tissue: Type of Lesion: LARGE INTESTINE: ADENOMA, Dose [Carcinogen]: 100 MG/KG BW DEN ONCE, 20 MG/KG BW MNU ONCE ON D 2, 5, 8 AND 11, 40 MG/KG BW DMH ON D 14, 17, 20 AND 23, 0.05% BHBN I, Dose [Carcinogen]: 100 MG/KG BW DEN ONCE, 20 MG/KG BW MNU ONCE ON D 2, 5, 8 AND 11, 40 MG/KG BW DMH ON D 14, 17, 20 AND 23, 0.05% BHBN I, Promoter: NONE USED): 6/20 (30%), 1/19 (5%), 83%, not calculated
tumour outcome (control, treated, inhibition, significance) (Carcinogen: DIETHYLNITROSAMINE, 55-18-5, N-METHYL-N-NITROSOUREA, 684-93-5, N,N'-DIMETHYLHYDRAZINE, 540-73-8, N-BUTYL-N-(4-HYDR, Carcinogen: DIETHYLNITROSAMINE, 55-18-5, N-METHYL-N-NITROSOUREA, 684-93-5, N,N'-DIMETHYLHYDRAZINE, 540-73-8, N-BUTYL-N-(4-HYDR, Dose [Inhibitor]: 0, 200 MG/KG BW IN CORN OIL 3/WK FOR 6 WK BEGINNING POST CARCINOGEN TREATMENT (STUDY DURATION: 28 WK), Route [Inhibitor]: GAVAGE, Species: RAT, Strain/Sex: F344/MALE, Target Tissue: Type of Lesion: LARGE INTESTINE: CARCINOMA, Dose [Carcinogen]: 100 MG/KG BW DEN ONCE, 20 MG/KG BW MNU ONCE ON D 2, 5, 8 AND 11, 40 MG/KG BW DMH ON D 14, 17, 20 AND 23, 0.05% BHBN I, Dose [Carcinogen]: 100 MG/KG BW DEN ONCE, 20 MG/KG BW MNU ONCE ON D 2, 5, 8 AND 11, 40 MG/KG BW DMH ON D 14, 17, 20 AND 23, 0.05% BHBN I, Promoter: NONE USED): 8/20 (40%), 7/19 (37%), 8%, not significant
tumour outcome (control, treated, inhibition, significance) (Carcinogen: DIETHYLNITROSAMINE, 55-18-5, N-METHYL-N-NITROSOUREA, 684-93-5, N,N-DIBUTYLNITROSAMINE, 924-16-3, Carcinogen: DIETHYLNITROSAMINE, 55-18-5, N-METHYL-N-NITROSOUREA, 684-93-5, N,N-DIBUTYLNITROSAMINE, 924-16-3, Dose [Inhibitor]: 0, 0.5% IN DIET BEGINNING POST CARCINOGEN TREATMENT AND CONTINUING TO WK 40 (STUDY DURATION: 40 WK), Route [Inhibitor]: ORAL, Species: RAT, Strain/Sex: F344/MALE, Target Tissue: Type of Lesion: LUNG: ADENOMA, Dose [Carcinogen]: 100 MG/KG DIETHYLNITROSAMINE ONCE FOLLOWED BY 20 MG/KG N-METHYL-N-NITROSOUREA ON D 2, 5, 8 AND 11 THEN 0.05% N-N-DIBUTYL, Promoter: NONE USED): 9/16 (56%), 2/18 (11%), 80%, p<0.01
